Results taken from US4328215A, “Method of reducing or avoiding the mutagenic activity of drugs” (The Johns Hopkins University, priority 1977, dated 1982).
“And” between values parts separate entries of the source, which are not always exact repeats. Equal entries are not always repeated.

Assays:
[1] = Conversion of CGP 4540 to mutagenic metabolite by route; format: in vivo; conditions: oral vs injected intramuscularly or intravenously
Schistosoma mansoni [2] = assay: Antischistosomal activity in infected mice; format: in vivo
Protocol: Six groups of test mice, infected with Schistosoma mansoni, were treated as follows:
(1) a single dose of formulated CGP 4540 (10 mg/kg) with no antibiotic administered;
(2) single dose of formulated CGP 4540 as in (1) but preceded by 100 mg/kg of erythromycin (base);
(4) same as (1) but using a CGP 4540 dosage of 15 mg/kg;
(5) same as (4) but preceded by a 100 mg/kg dose of erythromycin; and
All drugs were administered by gastric intubation.

[3] = test system: Salmonella typhimurium Strain TA 100; assay: Urine analysis (Ames test) of mice treated with CGP 4540, strain TA 100, with/without S9;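 further: mouse urine gathered in 24 h periods after drug dosing, 0.1 and 0.25 ml aliquots plated on the bacteria, plates counted following 48 h at 37 °C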
Protocol: Mice are placed into a metabolism cage and control urines are collected on ice for 24 hours. These animals are then treated with the drug and urine is collected in refrigerated containers for the two subsequent 24-hour periods. The volume of the urine is measured and the urine is stored at -80° C. until assayed.
Urine specimens are thawed, centrifuged at 10,000×g for 15 minutes and sterilized by filtration through a 0.22 μm Millipore filter. Effects of 0.1 and 0.25 ml aliquots are tested on strains TA 100 with and without added S9 microsomal fraction. Plates are counted after incubation at 37° C. for 48 hours. The dose response at these two urine concentrations is used to calculate the number of revertants induced by the total volume of urine excreted in 24 hours. […] Aliquots of this mixture are tested after adjustment to pH 7 in the absence and the presence of the S9 fraction.
The mice were infected with S. typhimurium TA 100 as the test strain and the CGP 4540 was formulated as in Example 1. […] Three control mice were employed.

bile ducts and the liver = assay: Acute hepatotoxic effects; format: in vivo
Excerpt: A further advantage of the invention is that, at least in some instances, acute hepatotoxic effects resulting from use of an antischistosomal or other drug and caused by a metabolic product, may be prevented. […] Accordingly, in this particular situation the administration of the antibacterial agent not only prevents the mutagenic effects of a metabolic product of the intestinal bacterial flora but also the acute hepatotoxic effects which might otherwise be encountered.

Salmonella typhimurium = assay: Mutagenic activity of urines of treated germ-free and conventional rats (Ames); format: in vivo; conditions: for Revertants in excess of controls excreted in 24 hrs: 250 mg/kg oral
Protocol: Urine analysis (referred to above as the "Ames" test).
The schistosomicide 4-nitro-4'-[…] diphenylamine (CGP 4540) was orally administered to two germ-free rats and two conventional male Fisher rats weighing 220-240 grams. Urines from the thus treated animals were analyzed for mutagenic activity and assays were carried out as described in Journal of Pharmacology and Experimental Therapeutics, 200, 1-9 (1977) using the methodology of Ames et al (Mutat. Res., 31, 347-364). The mutagenic activities of the urines were determined in both the absence and presence of S9 (hepatic microsomal) fractions of phenobarbital pretreated rats (Ames et al, Proc. Nat. Acad. Sci, U.S.A., 71, 737-741, 1974) without and with preincubation with β-glucuronidase.
For test purposes, the isothiocyanate derivative was dissolved at 40° C. in a polyethoxylated vegetable oil (Emulphor El 620) to a final concentration of 50 mg/ml. Following sterilization by means of millipore filtration the mixture was administered by gastric intubation to two germ-free and two conventional male Fisher rats (weighing 220 to 240 gms) at a dose of 250 mg/kg of the isothiocyanate. One germ-free and one conventional rat that were given the filtered vehicle without the drug served as controls. The urines of each animal were collected for a period of 48 hours subsequent to administration of the drug or the filtered vehicle.
The germ-free rats used in the tests were kept in Tresder type plastic isolators. After administration of the isothiocyanate or the vehicle the germ-free rats were transferred into individual metabolism cages in the isolators.
The mutagenic activity determined for the test animals, expressed in terms of revertants in excess of the controls, is shown below: […]

[4] = Thin layer chromatography of urine extracts for mutagenic metabolite; format: in vivo, rats
Schistosoma mansoni [5] = assay: Antischistosomal activity in infected mice; format: in vivo; remark: listed apart in the source
[6] = CGP 4540 10 mg/kg single dose, no antibiotic, 196 mice, 10 mg/kg
[7] = CGP 4540 10 mg/kg, erythromycin (base) 100 mg/kg
[8] = CGP 4540 10 mg/kg, erythromycylamine 100 mg/kg
[9] = CGP 4540 15 mg/kg, erythromycylamine 100 mg/kg
[10] = succinylsulfathiazole 1 g/kg once daily for 3 days before CGP 4540
[11] = CGP 4540 10 mg/kg, bacitracin 440 mg/kg
[12] = CGP 4540 10 mg/kg, succinylsulfathiazole 1 g/kg + bacitracin 220 mg/kg
[13] = CGP 4540 15 mg/kg, erythromycin (base) 100 mg/kg
[14] = CGP 4540 15 mg/kg, no antibiotic
[15] = CGP 4540 20 mg/kg, bacitracin 440 mg/kg
[16] = CGP 4540 20 mg/kg, no antibacterial
[17] = CGP 4540 20 mg/kg, succinylsulfathiazole 1 g/kg + bacitracin 220 mg/kg

O=[N+]([O-])c1ccc(Nc2ccc(N=C=S)cc2)cc1 [CGP 4540]
Increase in conversion to mutagenic metabolite, oral vs intramuscular or intravenous [1]: 50%
Mice with parasitological cures (Schistosoma mansoni [2]; [6]): 95%
Mice with parasitological cures (Schistosoma mansoni [2]; [7]): 100%
Reduction in number of worms (Schistosoma mansoni [2]; [7]): 100%
Reduction in number of worms (Schistosoma mansoni [2]; [8]): 100%
Reduction in number of worms (Schistosoma mansoni [2]; [9]): 100%
Schistosomicidal activity of single low doses with or without antibacterial agents (Schistosoma mansoni [2]; single low doses, with vs without antibacterial agents): nearly or equally as effective
Urine revertants in excess of controls ([3]; CGP 4540 100 mg/kg oral, no pretreatment, day 1, +S9): 239 revertants per total 24 hour u
Urine revertants in excess of controls ([3]; CGP 4540 100 mg/kg oral, no pretreatment, day 1, no S9): 56 revertants per total 24 hour u
Urine revertants in excess of controls ([3]; CGP 4540 100 mg/kg oral, no pretreatment, day 2, +S9): 30 revertants per total 24 hour u
Urine revertants in excess of controls ([3]; CGP 4540 100 mg/kg oral, no pretreatment, day 2, no S9): 11 revertants per total 24 hour u
Urine revertants in excess of controls ([3]; CGP 4540 100 mg/kg oral, succinylsulfathiazole 1 g/kg, day 1, +S9): 108 revertants per total 24 hour u
Urine revertants in excess of controls ([3]; CGP 4540 100 mg/kg oral, succinylsulfathiazole 1 g/kg, day 1, no S9): 37 revertants per total 24 hour u
Urine revertants in excess of controls ([3]; CGP 4540 100 mg/kg oral, succinylsulfathiazole 1 g/kg, day 2, +S9): 12 revertants per total 24 hour u
Urine revertants in excess of controls ([3]; CGP 4540 100 mg/kg oral, succinylsulfathiazole 1 g/kg, day 2, no S9): 0 revertants per total 24 hour u
Urine revertants in excess of controls ([3]; CGP 4540 250 mg/kg oral, bacitracin 220 mg/kg, day 1, +S9): 96 revertants per total 24 hour u
Urine revertants in excess of controls ([3]; CGP 4540 250 mg/kg oral, bacitracin 220 mg/kg, day 1, no S9): 31 revertants per total 24 hour u
Urine revertants in excess of controls ([3]; CGP 4540 250 mg/kg oral, bacitracin 220 mg/kg, day 2, +S9): 10 revertants per total 24 hour u
Urine revertants in excess of controls ([3]; CGP 4540 250 mg/kg oral, bacitracin 220 mg/kg, day 2, no S9): 4 revertants per total 24 hour u
Urine revertants in excess of controls ([3]; CGP 4540 250 mg/kg oral, bacitracin 440 mg/kg, day 1, +S9): 0 revertants per total 24 hour u
Urine revertants in excess of controls ([3]; CGP 4540 250 mg/kg oral, bacitracin 440 mg/kg, day 1, no S9): 0 revertants per total 24 hour u
Urine revertants in excess of controls ([3]; CGP 4540 250 mg/kg oral, bacitracin 440 mg/kg, day 2, +S9): 0 revertants per total 24 hour u
Urine revertants in excess of controls ([3]; CGP 4540 250 mg/kg oral, bacitracin 440 mg/kg, day 2, no S9): 0 revertants per total 24 hour u
Urine revertants in excess of controls ([3]; CGP 4540 250 mg/kg oral, erythromycin base 100 mg/kg, day 1, +S9): 0 revertants per total 24 hour u
Urine revertants in excess of controls ([3]; CGP 4540 250 mg/kg oral, erythromycin base 100 mg/kg, day 1, no S9): 0 revertants per total 24 hour u
Urine revertants in excess of controls ([3]; CGP 4540 250 mg/kg oral, erythromycin base 100 mg/kg, day 2, +S9): 0 revertants per total 24 hour u
Urine revertants in excess of controls ([3]; CGP 4540 250 mg/kg oral, erythromycin base 100 mg/kg, day 2, no S9): 0 revertants per total 24 hour u
Urine revertants in excess of controls ([3]; CGP 4540 250 mg/kg oral, no pretreatment, day 1, +S9): 541 revertants per total 24 hour u
Urine revertants in excess of controls ([3]; CGP 4540 250 mg/kg oral, no pretreatment, day 1, no S9): 120 revertants per total 24 hour u
Urine revertants in excess of controls ([3]; CGP 4540 250 mg/kg oral, no pretreatment, day 2, +S9): 89 revertants per total 24 hour u
Urine revertants in excess of controls ([3]; CGP 4540 250 mg/kg oral, no pretreatment, day 2, no S9): 32 revertants per total 24 hour u
Urine revertants in excess of controls ([3]; CGP 4540 250 mg/kg oral, succinylsulfathiazole 1 g/kg + bacitracin 220 mg/kg, day 1, +S9): 0 revertants per total 24 hour u
Urine revertants in excess of controls ([3]; CGP 4540 250 mg/kg oral, succinylsulfathiazole 1 g/kg + bacitracin 220 mg/kg, day 1, no S9): 0 revertants per total 24 hour u
Urine revertants in excess of controls ([3]; CGP 4540 250 mg/kg oral, succinylsulfathiazole 1 g/kg + bacitracin 220 mg/kg, day 2, +S9): 0 revertants per total 24 hour u
Urine revertants in excess of controls ([3]; CGP 4540 250 mg/kg oral, succinylsulfathiazole 1 g/kg + bacitracin 220 mg/kg, day 2, no S9): 0 revertants per total 24 hour u
Urine revertants in excess of controls ([3]; CGP 4540 250 mg/kg oral, succinylsulfathiazole 1 g/kg, day 1, +S9): 269 revertants per total 24 hour u
Urine revertants in excess of controls ([3]; CGP 4540 250 mg/kg oral, succinylsulfathiazole 1 g/kg, day 1, no S9): 73 revertants per total 24 hour u
Urine revertants in excess of controls ([3]; CGP 4540 250 mg/kg oral, succinylsulfathiazole 1 g/kg, day 2, +S9): 30 revertants per total 24 hour u
Urine revertants in excess of controls ([3]; CGP 4540 250 mg/kg oral, succinylsulfathiazole 1 g/kg, day 2, no S9): 7 revertants per total 24 hour u
Mutagenic urinary metabolite [3, 10]: very marked decrease
Lesions in bile ducts and liver (bile ducts and the liver; 500 mg/kg (50 times the curative dose)): some destructive lesions may be produced in the bile ducts and the liver
Lesions in bile ducts and liver with antibacterial agent (bile ducts and the liver; 500 mg/kg, co-administration of erythromycin): these lesions are prevented
Mutagenic activity after incubation of urines with β-glucuronidase (Salmonella typhimurium; 3 hrs at 37° C., conventional rats): No further increase in mutagenic activity
Revertants in excess of controls excreted in 24 hrs (Salmonella typhimurium; conventional rats, urine 0-24 hrs, +S9, 250 mg/kg): 4,900 revertants excreted in 24 hrs and 5,000 revertants excreted in 24 hrs
Revertants in excess of controls excreted in 24 hrs (Salmonella typhimurium; conventional rats, urine 0-24 hrs, -S9, 250 mg/kg): 3,800 revertants excreted in 24 hrs and 3,750 revertants excreted in 24 hrs
Revertants in excess of controls excreted in 24 hrs (Salmonella typhimurium; conventional rats, urine 24-48 hrs, +S9, 250 mg/kg): 2,800 revertants excreted in 24 hrs and 3,050 revertants excreted in 24 hrs
Revertants in excess of controls excreted in 24 hrs (Salmonella typhimurium; conventional rats, urine 24-48 hrs, -S9, 250 mg/kg): 1,600 revertants excreted in 24 hrs and 1,200 revertants excreted in 24 hrs
Revertants in excess of controls excreted in 24 hrs (Salmonella typhimurium; germ-free rats, urine 0-24 hrs, +S9): 0 revertants excreted in 24 hrs
Revertants in excess of controls excreted in 24 hrs (Salmonella typhimurium; germ-free rats, urine 0-24 hrs, -S9): 0 revertants excreted in 24 hrs
Revertants in excess of controls excreted in 24 hrs (Salmonella typhimurium; germ-free rats, urine 24-48 hrs, +S9): 0 revertants excreted in 24 hrs
Revertants in excess of controls excreted in 24 hrs (Salmonella typhimurium; germ-free rats, urine 24-48 hrs, -S9): 0 revertants excreted in 24 hrs
Urinary mutagenic metabolite in germ-free rats (Salmonella typhimurium; urines of germ-free rats (1) and (2)): no mutagenic metabolite was detectable
Spot with Rf similar to isolated mutagenic metabolite in urine extract ([4]; conventional rats, 250 mg/kg oral, urine 0 to 24 hours): recognizable
Spot with Rf similar to isolated mutagenic metabolite in urine extract ([4]; germ-free rats): No such spot appeared
Reduction in number of worms (Schistosoma mansoni [5]; CGP 4540 10 mg/kg single dose, no antibiotic, 196 mice): 99%
Mice with parasitological cures (Schistosoma mansoni [5]; [6]): 96%
Mice with parasitological cures (Schistosoma mansoni [5]; [11]): 88%
Reduction in no. of worms (Schistosoma mansoni [5]; [11]): 98%
Mice with parasitological cures (Schistosoma mansoni [5]; [8]): 100%
Mice with parasitological cures (Schistosoma mansoni [5]; [12]): 92%
Reduction in no. of worms (Schistosoma mansoni [5]; [12]): 99%
Mice with parasitological cures (Schistosoma mansoni [5]; [13]): 100%
Reduction in number of worms (Schistosoma mansoni [5]; [13]): 100%
Mice with parasitological cures (Schistosoma mansoni [5]; [9]): 100%
Mice with parasitological cures (Schistosoma mansoni [5]; [14]): 100%
Reduction in number of worms (Schistosoma mansoni [5]; [14]): 100%
Mice with parasitological cures (Schistosoma mansoni [5]; [15]): 100%
Reduction in no. of worms (Schistosoma mansoni [5]; [15]): 100%
Mice with parasitological cures (Schistosoma mansoni [5]; [16]): 100%
Reduction in no. of worms (Schistosoma mansoni [5]; [16]): 100%
Mice with parasitological cures (Schistosoma mansoni [5]; [17]): 100%
Reduction in no. of worms (Schistosoma mansoni [5]; [17]): 100%
Curative antischistosomal activity after preceding antibiotic treatment (Schistosoma mansoni [5]; erythromycin base or erythromycylamine): not reduced
Effectiveness against schistosomiasis, oral vs intramuscular (Schistosoma mansoni [5]; formulated CGP 4540, oral and intramuscular): about equally effective
Antischistosomal activity after reduction of bacterial flora (Schistosoma mansoni [5]; succinylsulfathiazole 1 g/kg once daily for 3 days, oral): do not appear to affect the antischistosomal activity
Mutagenic activity in the host mediated assay (S. typhimurium TA 100; in vivo, po): no mutagenic activity was detectable
Mutant colonies found in the host-mediated assay (S. typhimurium TA 100; [10]): very marked decrease
